Values of other authors as cited in patent US20070021506A1, “Stress relieving composition” (Ajinomoto Co., Inc., priority 2004, published 2007).
Where two headings read alike, the source gives them in different places.

How the values were obtained:
5-HT4 receptor = target: T1, 5-HT4 receptor (Cavia porcellus, UniProt O70528); conditions: in vitro
T1 construct: from tissue; host or cells: guinea pig ileum

5HT-4 receptor = target: T2, 5HT-4 receptor (Rattus norvegicus, UniProt Q62758)
T2 construct: suppressed anxiety disorder of rats induced by a 5HT-4 receptor agonist; from tissue; host or cells: living rats (whole animal; oral L-lysine, s.c. agonist)

benzodiazepine receptor = conditions: Non-patent document 9

T2 sequence (Q62758 whole entry): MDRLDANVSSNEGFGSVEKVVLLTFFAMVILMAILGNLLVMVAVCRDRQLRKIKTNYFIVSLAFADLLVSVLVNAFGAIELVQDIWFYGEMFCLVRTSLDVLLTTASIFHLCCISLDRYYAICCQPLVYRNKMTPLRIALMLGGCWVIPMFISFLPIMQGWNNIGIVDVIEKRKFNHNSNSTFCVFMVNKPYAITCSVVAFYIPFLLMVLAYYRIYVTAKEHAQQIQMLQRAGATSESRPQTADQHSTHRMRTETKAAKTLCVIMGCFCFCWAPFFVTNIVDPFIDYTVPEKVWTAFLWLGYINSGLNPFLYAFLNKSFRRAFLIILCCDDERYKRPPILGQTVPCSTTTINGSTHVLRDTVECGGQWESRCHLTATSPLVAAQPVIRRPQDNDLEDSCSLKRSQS
T1 sequence (O70528 whole entry): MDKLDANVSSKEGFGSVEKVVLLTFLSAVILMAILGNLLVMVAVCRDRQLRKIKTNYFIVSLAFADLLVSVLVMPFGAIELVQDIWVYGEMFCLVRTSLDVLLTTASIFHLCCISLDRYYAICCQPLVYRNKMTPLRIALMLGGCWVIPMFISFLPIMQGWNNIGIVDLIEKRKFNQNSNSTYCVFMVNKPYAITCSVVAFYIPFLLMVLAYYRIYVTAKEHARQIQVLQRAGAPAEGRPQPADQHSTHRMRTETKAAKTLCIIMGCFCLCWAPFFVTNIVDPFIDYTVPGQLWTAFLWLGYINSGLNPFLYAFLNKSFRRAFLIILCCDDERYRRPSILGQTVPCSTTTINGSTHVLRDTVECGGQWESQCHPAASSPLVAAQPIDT

N[C@@H](Cc1ccc(O)cc1)C(=O)O [Tyr, tyrosine]
mood (normal subjects exposed to mental stress): improved the mood significantly
effect in terms of mood criterion (patients with depression): a significant effect in terms of mood criterion was not observed

N[C@@H](Cc1c[nH]c2ccccc12)C(=O)O [Trp, tryptophan]
mood enhancement effect (clinical study conducted recently (Non-patent document 3)): could not be fully supported
stress-induced mood (comparative clinical study, taken alone or together with carbohydrates): relieved

NCCCC[C@H](N)C(=O)O [L-lysine]
5-HT-induced contraction of the guinea pig ileum (5-HT4 receptor; 0.07 mmol/dl, P<0.05): blocked
5-HT-induced contraction of the guinea pig ileum (5-HT4 receptor; 0.7 mmol/dl, P<0.01): blocked
anxiety disorder of rats induced by a 5HT-4 receptor agonist (5HT-4 receptor; 1 g/kg, p.o., agonist 3.0 mmol/l s.c.): significantly suppressed
action at 5HT-4 receptor (5HT-4 receptor; rat, in vivo): partially serves as a 5HT-4 receptor antagonist
action at benzodiazepine receptor (benzodiazepine receptor): benzodiazepine receptor agonist
